# Tests used:
# Format in all cases: in vivo
# [1] = system: Puccinia recondita f. sp. tritici; experiment: Leaf painting assay in wheat seedling, Puccinia recondita preventive
# Description: Wheat seedlings of the variety Riband (for Zymoseptoria tritici trials) or variety Arina (for Puccinia recondite trials) were grown in the glasshouse until 14d after seeding. At this time, such seedlings usually have a first leaf fully emerged (designated L1), a second leaf fully emerged (L2) and a third leaf (L3) that is partially emerged and in the process of development. Using a permanent pen, two dots were applied on the second leaf such as to generate three segments of roughly equal size: Segment A (at the base), segment B (middle part) and segment C (tip of the leaf). A stock solution of the compound of Formula (I) was produced in water and of benzovindiflupyr in DMSO at a concentration of 10,000 ppm. […] The diluted compound was applied to the middle segment of L2 using a conventional cotton stick; the cotton stick was soaked in the diluted compound and rubbed several times on the adaxial leaf surface between the two marks. One day later, the complete plant was inoculated with a fungal spore suspension using a paint brush. The spore suspension was applied until before run-off.
# For infection with Puccinia recondita (preventive): The test plants were inoculated by spraying them with a spore suspension one day after application (spore suspension at 80,000 spores per ml in water supplemented with Tween20 at 0.1%). After an incubation period of 1 day at 20 °C and 95% rh, the inoculated test plants were kept at 20 °C and 60% rh in a greenhouse.
# The three segments of the leaf were evaluated individually.
# Puccinia recondita = experiment: Mixture with malonomicin, leaf disc, Puccinia recondita curative; conditions: foliar, 192 h, read-out: control of fungal growth
# From the text: An additional ingredient having pesticidal activity, for instance fungicidal activity may result in an unexpected synergistic activity. […] The action to be expected E for a given active ingredient combination obeys the so-called COLBY formula and can be calculated as follows (COLBY, S. R. “Calculating synergistic and antagonistic responses of herbicide combination”. Weeds, Vol. 15, pages 20-22; 1967): • ppm=milligrams of active ingredient (=a.i.) per liter of spray mixture • X=% action by active ingredient A) using p ppm of active ingredient • Y=% action by active ingredient B) using q ppm of active ingredient.
# According to COLBY, the expected (additive) action of active ingredients A)+B) using p+q ppm of active ingredient is:
# In mathematical terms, synergism corresponds to a positive value for the difference of (O-E). In the case of purely complementary addition of activities (expected activity), said difference (O-E) is zero. A negative value of said difference (O-E) signals a loss of activity compared to the expected activity.
# (§1) A stock solution for oligosaccharide compound according to the present invention was produced in water plus 0.025% Tween®20. Malonomicin was produced according to Law et al, 2018 (Nature Catalys is | VOL 1 | DECEMBER 2018 | 977-984). A stock solution of malonomicin was produced in water plus 0.025% Tween®20.
# (§2) Assays to test efficacy of mixtures of the compound of Formula (I) in combination with malonomicin on the control of fungal pathogens in a leaf disc assay were designed for two 24 well plates.
# Table 8 and 9: Outline of 24 well testplate (1) and testplate (2) including concentration of compounds sprayed per well. The upper number in the cell indicates the oligosaccharide compound of the present invention concentration (ppm), the lower number malonomicin concentration (ppm). Column (1) holds a dilution series of compound of Formula (I), row (2-D) hold a dilution series of malonomicin. Well 2-D-(1) represents an untreated check. This design was applied for tests including Puccinia recondita (EPPO code: PUCCRE) with preventive and curative spray timing.
# (§3) A first set of master plates with 1× concentrated spray solution of the compound of Formula (I) stock diluted in water with concentrations according to Table 8, Table 9, Table 11 and Table 12, respectively, was prepared. Each well contained 0.025% Tween®20. Accordingly, a second set of master plates with 1× concentrated malonomicin stock diluted in water was prepared. Each well of the second set contained 0.025% Tween®20. Leaf segments placed on agar in 24 well plates are sprayed with 8 ul of solution from the master plate containing compound of Formula (I) and the leaf segments were let to dry, followed 2 hours later by 8 ul of solution from the master plate containing malonomicin. After second sprays have dried, leaf segments are infected with fungal spores to obtain a preventive application timing. Alternatively, leaf segments infected one day before spray of the compounds are used, resulting in a curative spray timing. In addition, several plates were produced where leaf segments were sprayed 2× in absence of test compound (with only Tween®20), representing the untreated check samples. For each leaf segment percent leaf coverage of disease symptoms was assessed. Percent leaf coverage reduction relative to the untreated check was calculated. Efficacy of the mixtures was tested in duplicate and on different fungal species. Reported efficacy values are the average of two replicate results.
# Puccinia recondita (EPPO Code: PUCCRE) with Curative Spray Timing.
# Wheat (cultivar Kanzler) leaf segments are placed on agar in multiwell plates (24-well format). The leaf disks are then inoculated with a spore suspension of the fungus. One day after inoculation the test solution is sprayed (8 ul per well). After appropriate incubation the activity of a compound is assessed 8 dpi (days after inoculation) as curative fungicidal activity
# [2] = system: Blumeria graminis f.sp. tritici; experiment: Mixture with malonomicin, leaf disc, Blumeria graminis f.sp. tritici preventive; conditions: foliar, 168 h, read-out: control of fungal growth
# From the text: as §1, §2
# Table 11 and Table 12: Outline of 24 well testplate (3) and testplate (4) including concentration of compounds per well. The upper number in the cell indicates the oligosaccharide compound of the present invention concentration (ppm), the lower number malonomicin concentration (ppm). Column (1) holds a dilution series of compound of Formula (I), row (4-D) hold a dilution series of malonomicin. Well 4-D-(1) represents an untreated check. This design was applied for tests including Blumeria graminis f.sp. tritici (EPPO code: ERYSGT) with preventive spray timing and Parastagonospora nodorum (EPPO code: LEPTNO) with preventive spray timing.
# as §3
# Blumeria graminis f.sp. tritici (EPPO Code: ERYSGT) with Preventive Spray Timing
# Wheat (cultivar Kanzler) leaf segments are placed on agar in multiwell plates (24-well format) and sprayed with test solutions (8 ul per well). After drying, the leaf disks are inoculated with spores of the fungus. After appropriate incubation the activity of a compound is assessed 7 dpi (days post inoculation) as preventive fungicidal activity.
compound,measurement,setting,value
CC(=O)NC1C(OCC(OC2OC(CO)C(O)C(O)C2O)C2OC(OC3C(O)C(CO)OC(OC4(CO)OC(C(O)CO)C(O)C4OC4OC(CO)C(O)C(O)C4O)C3O)C(O)C(O)C2OC2OC(C(O)CO)C(O)C(O)C2OC2OCC(OC(N)=O)C(O)C2O)OC(CO)C(O)C1O (stereo not shown) [compound of Formula (I)],% reduction fungal growth,"[1]; Experiment 1, 200.00 ppm, base segment, preventive",0%
same,% reduction fungal growth,"[1]; Experiment 1, 200.00 ppm, middle segment (treated), preventive",48%
same,% reduction fungal growth,"[1]; Experiment 1, 200.00 ppm, tip segment, preventive",31%
same,% reduction fungal growth,"[1]; Experiment 2, 200.00 ppm, base segment, preventive",10%
same,% reduction fungal growth,"[1]; Experiment 2, 200.00 ppm, middle segment (treated), preventive",79%
same,% reduction fungal growth,"[1]; Experiment 2, 200.00 ppm, tip segment, preventive",38%
same,% reduction fungal growth,"[1]; Experiment 3, 400.00 ppm, base segment, preventive",16%
same,% reduction fungal growth,"[1]; Experiment 3, 400.00 ppm, middle segment (treated), preventive",98%
same,% reduction fungal growth,"[1]; Experiment 3, 400.00 ppm, tip segment, preventive",99%
same,% reduction fungal growth,"[1]; Experiment 4, 500.00 ppm, base segment, preventive",0%
same,% reduction fungal growth,"[1]; Experiment 4, 500.00 ppm, middle segment (treated), preventive",69%
same,% reduction fungal growth,"[1]; Experiment 4, 500.00 ppm, tip segment, preventive",82%
same,activity against growth of fungus,"[1]; leaf painting, preventive",active against growth
same,control on treated and above treated area,[1]; middle segment treated,provided control on the treated area (middle segment) as well as the above treated area (tip)
same,inhibition of growth at 3.13 µg/mL,Puccinia recondita; Formula (I) 3.13 ppm solo,0%
same,inhibition of growth at 6.25 µg/mL,Puccinia recondita; Formula (I) 6.25 ppm solo,0%
same,inhibition of growth at 12.5 µg/mL,Puccinia recondita; Formula (I) 12.5 ppm solo,10%
same,inhibition of growth at 25 µg/mL,Puccinia recondita; Formula (I) 25 ppm solo,10%
same,inhibition of growth at 50 µg/mL,Puccinia recondita; Formula (I) 50 ppm solo,20%
same,inhibition of growth at 100 µg/mL,Puccinia recondita; Formula (I) 100 ppm solo,70%
same,inhibition of growth at 200 µg/mL,Puccinia recondita; Formula (I) 200 ppm solo,80%
same,inhibition of growth at 9.38 µg/mL,[2]; Formula (I) 9.38 ppm solo,10%
same,inhibition of growth at 18.75 µg/mL,[2]; Formula (I) 18.75 ppm solo,0%
same,inhibition of growth at 37.5 µg/mL,[2]; Formula (I) 37.5 ppm solo,0%
same,inhibition of growth at 75 µg/mL,[2]; Formula (I) 75 ppm solo,20%
same,inhibition of growth at 150 µg/mL,[2]; Formula (I) 150 ppm solo,0%
same,inhibition of growth at 300 µg/mL,[2]; Formula (I) 300 ppm solo,10%
same,inhibition of growth at 600 µg/mL,[2]; Formula (I) 600 ppm solo,10%

# — patent publication US20260344665A1, “FUNGICIDAL COMPOUND” (priority 2022, published 2026)
